Literature values in patent publication US4632934A, “Imidazole derivatives and pharmaceutical use thereof” (Kissei Pharmaceutical Co., Ltd., priority 1978, dated 1986).

System: thromboxane synthetase
Details: prior art literature

| inhibitory effect on thromboxane synthetase (in words) | SMILES |
| --- | --- |
| strong inhibitory effect | CCCCCCCCCCn1ccnc1 [1-decylimidazole] |
| strong inhibitory effect | CCCCCCCCCn1ccnc1 [1-nonylimidazole] |
| strong inhibitory effect | CC(C)c1ccccc1-n1ccnc1 [1-(2-isopropylphenyl)imidazole] |

| SMILES | inhibitory effect on thromboxane synthetase (in words) |
| --- | --- |
| c1ccc(Cn2ccnc2)cc1 [1-benzylimidazole] | strong inhibitory effect |
| c1c[nH]cn1 [imidazole] | very weak inhibitory effect |
